Source: patent US6638973B2, “Taxane formulations” (FSU Research Foundation, Inc., priority 2000, dated 2003)

test system: HCT116 cells; experiment: In vitro cytotoxicity measured by the cell colony formation assay; assay type: cell-based; settings: HCT116 cells, 72 h drug incubation, colonies counted after 7 days; ID50 = drug concentration producing 50% inhibition of colony formation; read-out: IN VITRO ID 50 (nm) HCT116
Protocol: (§1) Four hundred cells (HCT116) were plated in 60 mm Petri dishes containing 2.7 mL of medium (modified McCoy's 5a medium containing 10% fetal bovine serum and 100 units/mL penicillin and 100 µg/mL streptomycin). The cells were incubated in a CO2 incubator at 37° C. for 5 h for attachment to the bottom of Petri dishes. The compounds identified in Example 2 were made up fresh in medium at ten times the final concentration, and then 0.3 mL of this stock solution was added to the 2.7 mL of medium in the dish. The cells were then incubated with drugs for 72 h at 37° C. At the end of incubation the drug-containing media were decanted, the dishes were rinsed with 4 mL of Hank's Balance Salt Solution (HBSS), 5 mL of fresh medium was added, and the dishes were returned to the incubator for colony formation. The cell colonies were counted using a colony counter after incubation for 7 days.
as §1, with “Example 7” for “Example 2”
as §1, with “Example 22” for “Example 2”
as §1, with “Example 27” for “Example 2”
Four hundred cells (HCT116) were plated in 60 mm Petri dishes containing 2.7 mL of medium (modified McCoy's 5a medium containing 10% fetal bovine serum and 100 units/mL penicillin and 100 µg/mL streptomycin). The cells were incubated in a CO2 incubator at 37° C. for 5 h for attachment to the bottom of Petri dishes. […]

Q: For `CC(=O)O[C@@]12CO[C@@H]1C[C@H](OC(=O)Nc1ccccc1)[C@@]1(C)C(=O)[C@H](O)C3=C(C)[C@@H](OC(=O)[C@H](O)[C@@H](NC(=O)C=C(C)C)c4ccco4)C[C@@](O)([C@@H](OC(=O)c4ccccc4)C12)C3(C)C` (stereo partly drawn) [Compound 5535, N-Debenzoyl-N-isobutenyl-3′-desphenyl-3′-(2-furyl)-7-phenylcarbamoyl taxol], which IC50 is on record?
A: < 1 nM

same assay, conditions: HCT116 cells, 72 h incubation with drug, colonies counted after 7 days; ID50 = drug concentration producing 50% inhibition of colony formation; read-out: IN VITRO ID 50 (nm) HCT116

Q: How did the IC50 turn out when `C/C=C/C(=O)N[C@@H](c1cccs1)[C@@H](O)C(=O)O[C@H]1C[C@@]2(O)[C@@H](OC(=O)c3ccccc3)C3[C@](C)(C(=O)[C@H](OC(=O)OCC)C(=C1C)C2(C)C)[C@@H](O)C[C@H]1OC[C@@]31OC(C)=O` (stereo partly drawn) [Compound 3243] was run?
A: < 1 nM

Q: For `COC(=O)O[C@H]1C[C@H]2OC[C@@]2(OC(C)=O)C2[C@H](OC(=O)c3ccccc3)[C@]3(O)C[C@H](OC(=O)[C@H](O)[C@@H](NC(=O)OC(C)C)c4cccs4)C(C)=C([C@@H](O)C(=O)[C@@]21C)C3(C)C` (stereo partly drawn) [Compound 4144], which IC50 is on record?
A: < 1 nM

Q: How did the IC50 turn out when `CC(=O)O[C@@]12CO[C@@H]1C[C@H](OC(=O)OCc1ccccc1)[C@@]1(C)C(=O)[C@H](O)C3=C(C)[C@@H](OC(=O)[C@H](O)[C@@H](NC(=O)C=C(C)C)c4ccco4)C[C@@](O)([C@@H](OC(=O)c4ccccc4)C12)C3(C)C` (stereo partly drawn) [Compound 5466] was run?
A: < 1 nM

Q: With `CCOC(=O)N[C@@H](c1ccco1)[C@@H](O)C(=O)O[C@H]1C[C@@]2(O)[C@@H](OC(=O)c3ccccc3)C3[C@](C)(C(=O)[C@H](OC(=O)OCC)C(=C1C)C2(C)C)[C@@H](O)C[C@H]1OC[C@@]31OC(C)=O` (stereo partly drawn) [Compound 4020] as the molecule, how does the IC50 read?
A: < 1 nM

Q: `COC(=O)O[C@H]1C[C@H]2OC[C@@]2(OC(C)=O)C2[C@H](OC(=O)c3ccccc3)[C@]3(O)C[C@H](OC(=O)[C@H](O)[C@@H](NC(=O)c4ccco4)c4cccs4)C(C)=C([C@@H](O)C(=O)[C@@]21C)C3(C)C` (stereo partly drawn) [Compound 4222] was tested. Which IC50 did it give?
A: < 1 nM

same assay, conditions: HCT116 colony formation; 72 h drug incubation, colonies counted after 7 days; Example 5, C-7 ester/C-10 hydroxy taxanes; read-out: IN VITRO ID 50 (nm) HCT116

Q: With `CCC(=O)O[C@H]1C[C@H]2OC[C@@]2(OC(C)=O)C2[C@H](OC(=O)c3ccccc3)[C@]3(O)C[C@H](OC(=O)[C@H](O)[C@@H](NC(=O)OC(C)(C)C)C4CCC4)C(C)=C([C@@H](O)C(=O)[C@@]21C)C3(C)C` (stereo partly drawn) [Compound 1447] as the molecule, how does the IC50 read?
A: < 10 nM

Q: `CCCC(=O)O[C@H]1C[C@H]2OC[C@@]2(OC(C)=O)C2[C@H](OC(=O)c3ccccc3)[C@]3(O)C[C@H](OC(=O)[C@H](O)[C@@H](NC(=O)OCC(C)C)c4ccco4)C(C)=C([C@@H](O)C(=O)[C@@]21C)C3(C)C` (stereo partly drawn) [Compound 4616] was tested. Which IC50 did it give?
A: < 1 nM

Q: Which IC50 does the source give for `CCC(=O)O[C@H]1C[C@H]2OC[C@@]2(OC(C)=O)C2[C@H](OC(=O)c3ccccc3)[C@]3(O)C[C@H](OC(=O)[C@H](O)[C@@H](NC(=O)OC(C)C)c4cccs4)C(C)=C([C@@H](O)C(=O)[C@@]21C)C3(C)C` (stereo partly drawn) [Compound 3082] here?
A: < 1 nM

same assay, conditions: HCT116 colony formation; 72 h drug incubation, colonies counted after 7 days; Example 10, C-10 ester/C-7 hydroxy taxanes; read-out: IN VITRO ID 50 (nm) HCT116

Q: With `CCC(=O)O[C@H]1C(=O)[C@@]2(C)C([C@H](OC(=O)c3ccccc3)[C@]3(O)C[C@H](OC(=O)[C@H](O)[C@@H](NC(=O)c4ccccc4)c4ccncc4)C(C)=C1C3(C)C)[C@]1(OC(C)=O)CO[C@@H]1C[C@@H]2O` (stereo partly drawn) [Compound 0659] as the molecule, how does the IC50 read?
A: < 1 nM

Q: `CC(=O)OC12COC1CC(O)C1(C)C(=O)C(OC(=O)c3cccs3)C3=C(C)C(OC(=O)C(O)C(NC(=O)OC(C)(C)C)c4cccs4)CC(O)(C(OC(=O)c4ccccc4)C21)C3(C)C` (stereo not drawn) [Compound 1900] was tested. Which IC50 did it give?
A: < 1 nM

Q: `CCCC(=O)O[C@H]1C(=O)[C@@]2(C)C([C@H](OC(=O)c3ccccc3)[C@]3(O)C[C@H](OC(=O)[C@H](O)[C@@H](NC(=O)OCC(C)C)c4ccsc4)C(C)=C1C3(C)C)[C@]1(OC(C)=O)CO[C@@H]1C[C@@H]2O` (stereo partly drawn) [Compound 4834] was tested. Which IC50 did it give?
A: < 10 nM

Q: For `CCC(=O)O[C@H]1C(=O)[C@@]2(C)C([C@H](OC(=O)c3ccccc3)[C@]3(O)C[C@H](OC(=O)[C@H](O)[C@@H](NC(=O)c4cccs4)c4cccs4)C(C)=C1C3(C)C)[C@]1(OC(C)=O)CO[C@@H]1C[C@@H]2O` (stereo partly drawn) [Compound 3425], which IC50 is on record?
A: < 1 nM

Q: For `CCC(=O)O[C@H]1C(=O)[C@@]2(C)C([C@H](OC(=O)c3ccccc3)[C@]3(O)C[C@H](OC(=O)[C@H](O)[C@@H](NC(=O)OC(C)(C)C)c4ccncc4)C(C)=C1C3(C)C)[C@]1(OC(C)=O)CO[C@@H]1C[C@@H]2O` (stereo partly drawn) [Compound 0521], which IC50 is on record?
A: < 1 nM

Q: `CC(=O)O[C@@]12CO[C@@H]1C[C@H](O)[C@@]1(C)C(=O)[C@H](OC(=O)C=C(C)C)C3=C(C)[C@@H](OC(=O)[C@H](O)[C@@H](NC(=O)OC(C)(C)C)c4ccoc4)C[C@@](O)([C@@H](OC(=O)c4ccccc4)C12)C3(C)C` (stereo partly drawn) [Compound 2499] was tested. Which IC50 did it give?
A: < 1 nM

Q: Which IC50 does the source give for `CC(=O)O[C@@]12CO[C@@H]1C[C@H](O)[C@@]1(C)C(=O)[C@H](OC(=O)C3CC3)C3=C(C)[C@@H](OC(=O)[C@H](O)[C@@H](NC(=O)c4cccs4)c4ccco4)C[C@@](O)([C@@H](OC(=O)c4ccccc4)C12)C3(C)C` (stereo partly drawn) [Compound 3663] here?
A: < 1 nM

Q: With `CC(=O)O[C@@]12CO[C@@H]1C[C@H](O)[C@@]1(C)C(=O)[C@H](OC(=O)C3CC3)C3=C(C)[C@@H](OC(=O)[C@H](O)[C@@H](NC(=O)C=C(C)C)c4cccs4)C[C@@](O)([C@@H](OC(=O)c4ccccc4)C12)C3(C)C` (stereo partly drawn) [Compound 4329] as the molecule, how does the IC50 read?
A: < 1 nM

Q: `CCCC(=O)O[C@H]1C(=O)[C@@]2(C)C([C@H](OC(=O)c3ccccc3)[C@]3(O)C[C@H](OC(=O)[C@H](O)[C@@H](NC(=O)c4cccs4)c4ccco4)C(C)=C1C3(C)C)[C@]1(OC(C)=O)CO[C@@H]1C[C@@H]2O` (stereo partly drawn) [Compound 3656] was tested. Which IC50 did it give?
A: < 1 nM

Q: For `CC(=O)O[C@@]12CO[C@@H]1C[C@H](O)[C@@]1(C)C(=O)[C@H](OC(=O)C(C)C)C3=C(C)[C@@H](OC(=O)[C@H](O)[C@@H](NC(=O)OC(C)(C)C)c4ccco4)C[C@@](O)([C@@H](OC(=O)c4ccccc4)C12)C3(C)C` (stereo partly drawn) [Compound 2269], which IC50 is on record?
A: < 1 nM

Q: `CCC(=O)O[C@H]1C(=O)[C@@]2(C)C([C@H](OC(=O)c3ccccc3)[C@]3(O)C[C@H](OC(=O)[C@H](O)[C@@H](NC(=O)c4ccco4)c4ccco4)C(C)=C1C3(C)C)[C@]1(OC(C)=O)CO[C@@H]1C[C@@H]2O` (stereo partly drawn) [Compound 3818] was tested. Which IC50 did it give?
A: < 1 nM

Q: With `CCOC(=O)N[C@@H](c1ccco1)[C@@H](O)C(=O)O[C@H]1C[C@@]2(O)[C@@H](OC(=O)c3ccccc3)C3[C@](C)(C(=O)[C@H](OC(=O)CC)C(=C1C)C2(C)C)[C@@H](O)C[C@H]1OC[C@@]31OC(C)=O` (stereo partly drawn) [Compound 3535] as the molecule, how does the IC50 read?
A: < 1 nM

Q: How did the IC50 turn out when `C/C=C/C(=O)O[C@H]1C(=O)[C@@]2(C)C([C@H](OC(=O)c3ccccc3)[C@]3(O)C[C@H](OC(=O)[C@H](O)[C@@H](NC(=O)OC(C)(C)C)c4ccoc4)C(C)=C1C3(C)C)[C@]1(OC(C)=O)CO[C@@H]1C[C@@H]2O` (stereo partly drawn) [Compound 2380] was run?
A: < 1 nM

Q: For `CCC(=O)O[C@H]1C(=O)[C@@]2(C)C([C@H](OC(=O)c3ccccc3)[C@]3(O)C[C@H](OC(=O)[C@H](O)[C@@H](NC(=O)c4ccccc4)c4ccsc4)C(C)=C1C3(C)C)[C@]1(OC(C)=O)CO[C@@H]1C[C@@H]2O` (stereo partly drawn) [Compound 0691], which IC50 is on record?
A: < 1 nM

same assay, conditions: HCT116 colony formation; 72 h drug incubation, colonies counted after 7 days; Example 15, C-7 substituted acetate/C-10 hydroxy taxanes; read-out: IN VITRO ID 50 (nm) HCT116

Q: How did the IC50 turn out when `CC(=O)O[C@@]12CO[C@@H]1C[C@H](OC(=O)COc1ccccc1)[C@@]1(C)C(=O)[C@H](O)C3=C(C)[C@@H](OC(=O)[C@H](O)[C@@H](NC(=O)C=C(C)C)c4ccco4)C[C@@](O)([C@@H](OC(=O)c4ccccc4)C12)C3(C)C` (stereo partly drawn) [Compound 5555] was run?
A: < 1 nM
